Molecular target: Gelatinase
Assay: particle concentration fluorescence assay of MMP inhibition in vitro
Assay type: biochemical
Details: fluorescein/biotin-labelled substrate, avidin-coated particles, room temperature, pH 7.5
Protocol: Inhibitory activity is evaluated in one or more of the MMP enzymes (stromelysin, gelatinase, and collagenase) in vitro using particle concentration fluorescence assay. An inhibitor binds to MMP enzymes which prevents the degradation of a substrate by stromelysin, gelatinase, or collagenase. The substrate has attached to it a fluorescein and a biotin moiety. The intact substrate then binds to an avidin-coated particle via the biotin moiety. Once the particle is washed and dried, a fluorescent signal is generated since the fluorescent group is attached to the particle. Without an inhibitor present, the substrate is degraded by MMP enzymes and the fluorescein group is removed, therefore, no fluorescent signal can be detected. Testing compounds are dissolved in DMSO to the desired concentration, then the solutions are diluted to 1:5 with MMP buffer (50 mM Tris-HCl, pH 7.5; 150 mM NaCl; 0.02% NaN3). Serial two-fold dilutions of each compound are prepared. A concentrated, activated enzyme solution is transferred into each plate of the testing compounds, and the mixture is incubated at room temperature for 15 minutes. Thawed MMP substrate is then added into all plates, and the plates are incubated in the dark for 1-3 hours at room temperature. At this point, the substrate mixture is mixed with 0.1% avidin-coated polystyrene particles. After 15 minutes, the fluorescence values are measured following filtration and washing of the beads. Ki values are then calculated.

SMILES | Ki
CCCCCCCCS(=O)(=O)N[C@H](Cc1c[nH]c2ccccc12)C(=O)NO [Example 6, N-hydroxy-2(R)-[(n-octylsulfonyl)amino]-3-(3-indolyl)-propanamide] | 12.1 nM
COc1ccc(S(=O)(=O)N[C@@H](C(=O)NO)c2ccccc2)cc1 [Example 7, N-hydroxy-2(R)-[(4-methoxybenzenesulfonyl)amino]-2-phenyl acetamide] | 3.3 nM
CC(C)[C@@H](NS(=O)(=O)c1ccccc1)C(=O)NO [Example 9, N-hydroxy-2(R)-[(benzenesulfonyl)amino]-3-methyl butanamide] | 82 nM
O=C(NO)[C@@H](Cc1c[nH]c2ccccc12)NS(=O)(=O)c1ccccc1 [Example 2, N-hydroxy-2(R)-[(benzenesulfonyl)amino]-3-(3-indolyl)-propanamide] | 14.2 nM
CCC(C)(C)C(NS(=O)(=O)c1ccc(OC)cc1)C(=O)NO (stereo not drawn) [Example 10, N-Hydroxy-2-[(4-methoxybenzenesulfonyl)-amino]-3,3-dimethyl pentanamide] | 9.8 nM

More lines, in order of falling Ki, values ahead:

Ki | SMILES
79 nM | O=C(NO)[C@@H](Cc1c[nH]c2ccccc12)NS(=O)(=O)c1ccc(F)cc1 [Example 3, N-hydroxy-2(R)-[(4-fluorobenzenesulfonyl)-amino]-3-(3-indolyl)-propanamide]
7.81 nM | COc1ccc(S(=O)(=O)N[C@H](Cc2c[nH]c3ccccc23)C(=O)NO)cc1 [Example 1, N-hydroxy-2(R)-[(4-methoxybenzenesulfonyl)amino]-3-(3-indolyl)-propanamide]
7.23 nM | COc1ccc(S(=O)(=O)N[C@H](Cc2ccccc2)C(=O)NO)cc1 [Example 4, N-hydroxy-2(R)-[(4-methoxybenzenesulfonyl)-amino]-3-phenyl-propanamide]
2.6 nM | O=C(NO)[C@@H](Cc1c[nH]c2ccccc12)NS(=O)(=O)c1ccc(Br)cc1 [Example 5, N-hydroxy-2(R)-[(4-bromobenzenesulfonyl)amino]-3-(3-indolyl)-propanamide]
